Assays:
CHO cells [1] = assay: Cell viability, Trypan blue exclusion method (Cedex HiRes), Examples 3 and 4; format: cell-based, Chinese hamster; details: for cell viability: 14 days after the culture
Experimental: (§1) Cells were prepared using the same method as that used in Example 1, and a glutamine-free and 2×HT-containing medium was added to the prepared cells. 4 mM of uridine (catalog No.: U3003, Sigma) or 8 mM of galactose (Catalog No.: G0750, Sigma) was added to the medium. The cells were cultured at 37° C. and 5% CO2, and the medium was replaced with a fresh medium every two days. Cells cultured in a glutamine-free medium were used as a negative control.
(§2) After about 14 days, viable cell density and cell viability were measured using a Cedex HiRes analyzer (Model No.: 05650216001, Roche) through a scanner-based imaging method and a Trypan blue exclusion method. The viable cell density (CHO cells/ml) of cells cultured in the presence of uridine and in the presence of galactose is illustrated in FIGS. 5A and 5B, respectively. In addition, the cell viability (%) of cells cultured in the presence of uridine and in the presence of galactose is illustrated in FIGS. 6A and 6B, respectively.
as §1, with “1” for “4”, “magnesium” for “uridine (catalog No.: U3003, Sigma) or 8 mM of galactose”, “M4880,” for “G0750,”
After about 14 days, viable cell density and cell viability were measured using a Cedex HiRes analyzer (Model No.: 05650216001, Roche) through a scanner-based imaging method and a Trypan blue exclusion method, respectively. The viable cell density (CHO cells/ml) and cell viability of the cells cultured in the presence of magnesium are illustrated in FIGS. 7 and 8, respectively.

[2] = system: Chinese hamster ovary (CHO) cells; details: 8 mM ammonia; cited from earlier work
CHO cells [3] = assay: Viable cell density, scanner-based imaging (Cedex HiRes), Examples 3 and 4; set-up: species or system Chinese hamster; details: 8 mM galactose added to glutamine-free 2×HT medium; FIG. 5B
Experimental: as §1, §2
Cells were prepared using the same method as that used in Example 1, and a glutamine-free and 2×HT-containing medium was added to the prepared cells. […]
After about 14 days, viable cell density and cell viability were measured using a Cedex HiRes analyzer (Model No.: 05650216001, Roche) through a scanner-based imaging method and a Trypan blue exclusion method, respectively. […]

Structure (SMILES): [Mg+2] [magnesium]
- cell viability (CHO cells [1]; 1 mM magnesium added to glutamine-free 2×HT medium): 91.5%

Structure (SMILES): N [ammonia]
- inhibition of cell growth [2]: 50%

Structure (SMILES): O=c1ccn([C@@H]2O[C@H](CO)[C@@H](O)[C@H]2O)c(=O)[nH]1 [uridine]
- cell viability (CHO cells [1]; 4 mM uridine added to glutamine-free 2×HT medium): 94.6%

Structure (SMILES): O=C[C@H](O)[C@@H](O)[C@@H](O)[C@H](O)CO [galactose, reference compound]
- viable cell density, versus medium without galactose (CHO cells [3]): no significant difference
- cell viability (printed: viable cell density), versus medium without galactose (CHO cells [1]; 8 mM galactose added to glutamine-free 2×HT medium, FIG. 6B): no significant difference

— patent US20230203554A1, “PROCESS FOR REDUCING UNWANTED CULTURE BYPRODUCTS IN CELL CULTURE MEDIUM” (SAMSUNG BIOEPIS CO., LTD., priority 2016, published 2023)
